# Test results taken from ChEMBL document CHEMBL4888484, “Replenishing the malaria drug discovery pipeline: Screening and hit evaluation of the MMV Hit Generation Library 1 (HGL1) against asexual blood stage Plasmodium falciparum ,using a nano luciferase reporter read-out” (2022).
# Key:
# [1] = test system: Plasmodium falciparum; assay: Re-testing in dose-response curve in 3D7 pLDH assay, at 72h; assay type: functional, organism-based; design: timepoint 72 hour; conditions: 3D7, Erythrocyte
# [2] = Hit confirmation in dose-response curve in HepG2 cytotoxicity assay, at 72h; assay type: toxicity, cell-based; design: timepoint 72 hour; conditions: human, HepG2 cells
# [3] = Re-testing in dose-response curve in HepG2 cytotoxicity assay, at 72h; assay type: toxicity, cell-based; design: timepoint 72 hour; conditions: human, HepG2 cells
# [4] = test system: Plasmodium falciparum; assay: Hit confirmation in dose-response curve in Dd2 pLDH assay, at 72h; assay type: functional, organism-based; design: timepoint 72 hour; conditions: Dd2, Erythrocyte
# [5] = test system: Plasmodium falciparum; assay: Hit confirmation in dose-response curve in NF54 pLDH assay, at 72h; assay type: functional, organism-based; design: timepoint 72 hour; conditions: NF54, Erythrocyte
# [6] = test system: Plasmodium falciparum; assay: Hit confirmation in dose-response curve in NF54 nanoGlo assay, at 72h; assay type: functional, organism-based, Erythrocyte; design: timepoint 72 hour; conditions: Plasmodium falciparum, NF54, Erythrocyte, 72 h
# [7] = test system: Plasmodium falciparum; assay: Hit confirmation in dose-response curve in NF54 nanoGlo assay, at 12h; assay type: functional, organism-based, Erythrocyte; design: timepoint 12 hour; conditions: Plasmodium falciparum, NF54, Erythrocyte, 12 h
Structure (SMILES),IC50 [1],IC50 at 72 h [2],IC50 at 72 h [3],IC50 [4],IC50 [5],IC50 [6],IC50 [7]
COc1ccc(-c2cc(C(=O)N[C@H]3CCN(c4ccc(=O)[nH]n4)C3)c(C)n2C)cc1,0.289 µM,> 10 µM,> 25 µM,0.871 µM,2.04 µM,0.501 µM,> 10 µM
Cc1cnccc1NCCNCc1cccc(O)c1Cl,0.943 µM,> 10 µM,> 25 µM,1.23 µM,1.48 µM,1.12 µM,> 10 µM
Cc1nn(-c2nc3ccccc3[nH]2)c(O)c1CCC(C)C,–,> 10 µM,–,3.72 µM,8.51 µM,2.69 µM,8.91 µM
Clc1ccc(COc2ccc(Cl)cc2CNCCCn2ccnc2)c(Cl)c1,1.01 µM,> 10 µM,6.11 µM,1.38 µM,1.26 µM,1.41 µM,3.02 µM
Cc1cc(NC(=O)C(=O)NC2CC(C)CC(C)(C)C2)n(-c2nc3c(c(=O)[nH]2)CCC3)n1 (stereo unspecified),0.392 µM,> 10 µM,0.118 µM,1.78 µM,2.09 µM,1.15 µM,> 10 µM
COc1ccc(C(=O)N2c3ncnn3C(c3ccccc3)CC2c2ccc(C)cc2)cc1OC (stereo unspecified),0.118 µM,> 10 µM,> 25 µM,0.741 µM,1.17 µM,0.457 µM,> 10 µM
Cc1ccnc(Nc2ccc(N3CCNCC3)nn2)c1,3 µM,> 10 µM,> 25 µM,1.7 µM,1.29 µM,1.62 µM,2.82 µM
Cc1cnccc1NCCNC1CCN(c2ccc3c(c2)CCC3)CC1,0.321 µM,8.13 µM,5.42 µM,0.646 µM,1.02 µM,4.57 µM,7.08 µM
Nc1ncc(C(=O)N2CCC3(CCCCCC3)C2)s1,0.575 µM,> 10 µM,> 25 µM,1.12 µM,0.871 µM,0.832 µM,1 µM
O=C(c1cscn1)N1CC[C@H](Oc2cccc(Cl)c2)C1,0.575 µM,> 10 µM,> 25 µM,1.95 µM,6.92 µM,3.98 µM,> 10 µM
COc1ccccc1C(=O)NC1=NN2C(=NC(c3ccc(Cl)cc3)=C[C@H]2c2ccc(Cl)cc2)N1,4.93 µM,> 10 µM,> 25 µM,1.1 µM,2.75 µM,0.63 µM,1.07 µM
Cc1noc(C)c1CN1C[C@@H]2Oc3cc(F)ccc3C(=O)N(C)[C@@H]2C1,0.488 µM,> 10 µM,> 25 µM,1 µM,1.02 µM,0.724 µM,1.58 µM
CC(C)c1cc(CN(Cc2cc(C(C)C)c(O)c(C(C)C)c2)C2CCCCC2)cc(C(C)C)c1O,0.113 µM,> 10 µM,> 8.33 µM,0.1 µM,0.151 µM,0.1 µM,0.631 µM
Nc1c(-c2nc3ccccc3[nH]2)c2nc3ccccc3nc2n1Cc1ccccc1F,2.11 µM,> 10 µM,24.7 µM,0.955 µM,1.1 µM,0.251 µM,> 10 µM
Cc1ccc(NC(=O)c2c(C)nc3sc(C(=O)NCc4ccccc4)c(N)c3c2-c2ccccc2Cl)c(C)c1,1.08 µM,> 10 µM,> 25 µM,1.78 µM,1.41 µM,0.831 µM,1.51 µM
C[C@H](N)c1ccc(Nc2ncc3cc(-c4ccncc4)ccc3n2)cc1,1.05 µM,> 10 µM,11.4 µM,1.2 µM,2.69 µM,1.1 µM,> 10 µM
COc1ccc(-c2cc(C(=O)N[C@H]3CCN(c4ccc(=O)n(C)n4)C3)c(C)n2C)cc1,0.347 µM,> 10 µM,> 25 µM,0.794 µM,3.63 µM,1.05 µM,> 10 µM
C[C@H]1CCCN(c2nc(-c3ccccn3)nc3ccccc23)C1,1.71 µM,> 10 µM,1.76 µM,1.45 µM,1.41 µM,0.468 µM,1.26 µM
Cc1ccc2c(c1)CCCN2C(=O)CN1CC=C(c2cnn(C)c2)CC1,0.777 µM,> 10 µM,> 25 µM,1.74 µM,3.8 µM,3.72 µM,> 10 µM
CC(=O)N(C1CCN(Cc2ccccc2)CC1)C1(C(=O)Nc2ccc3[nH]ccc3c2)CCN(C)CC1,1.23 µM,> 10 µM,> 25 µM,1.23 µM,1.26 µM,1.66 µM,3.98 µM
Cc1ccc(Nc2ccc(N3CCNCC3)nn2)nc1,5.09 µM,> 10 µM,> 25 µM,1.74 µM,3.16 µM,1.58 µM,3.09 µM
CC(C)CC[C@@H](CCNCCN(C)C)c1ccc(Cl)cc1,3.23 µM,> 10 µM,14.9 µM,0.977 µM,1.02 µM,0.562 µM,0.891 µM
CN(CCNC(=O)CCc1cn(-c2ccccc2)nc1-c1ccc2c(c1)OCO2)C1CCCCC1,0.545 µM,> 10 µM,~9.24 µM,1.48 µM,3.31 µM,1.48 µM,> 10 µM
CC(C)N(CC(=O)Nc1nccs1)Cc1ccccn1,9.79 µM,> 10 µM,> 24.8 µM,0.891 µM,1.7 µM,0.692 µM,> 10 µM
Clc1ccc(Cn2cc(CNCCCn3ccnc3)c3ccccc32)c(Cl)c1,~0.467 µM,> 10 µM,3.9 µM,1.17 µM,0.562 µM,0.741 µM,1.51 µM
COc1ccc([C@@H]2C=C(c3ccc(Cl)cc3)N=C3NC(NC(=O)c4ccccc4OC)=NN32)cc1,6.52 µM,> 10 µM,> 25 µM,1.23 µM,2.95 µM,0.759 µM,1.1 µM
CCc1ccc(C(=O)NCCCC2CCCC2O)cc1S(=O)(=O)N1CCOCC1 (stereo unspecified),2.49 µM,> 10 µM,> 25 µM,0.977 µM,4.37 µM,1.91 µM,> 10 µM
COc1cccc(-c2cc(O)cc(CC[C@H]3CCCCN3)c2)n1,1.28 µM,> 10 µM,> 25 µM,1.55 µM,1.82 µM,1.23 µM,1.73 µM
O=C(CN1CCC[C@H]1C1CCCC1)NCC1CCCCC1,2.07 µM,> 10 µM,> 25 µM,1.66 µM,3.02 µM,3.8 µM,> 10 µM
